# Source: the CheMixHub viscosity set
# ± gives the uncertainty stated by the source.
# Test: xn = mol fraction of the nth substance listed
smiles,measurement,setting,value
C1COCCO1 + CCCCCCC,viscosity,"308.15 K, 101 kPa, x1 = 0.1112",0.363 ± 0.02 mPa·s
same,viscosity,"308.15 K, 101 kPa, x1 = 0.225",0.396 ± 0.02 mPa·s
same,viscosity,"308.15 K, 101 kPa, x1 = 0.3223",0.422 ± 0.02 mPa·s
same,viscosity,"308.15 K, 101 kPa, x1 = 0.4312",0.471 ± 0.02 mPa·s
same,viscosity,"308.15 K, 101 kPa, x1 = 0.5017",0.505 ± 0.02 mPa·s
same,viscosity,"308.15 K, 101 kPa, x1 = 0.6114",0.572 ± 0.02 mPa·s
same,viscosity,"308.15 K, 101 kPa, x1 = 0.7213",0.658 ± 0.021 mPa·s
same,viscosity,"308.15 K, 101 kPa, x1 = 0.8211",0.76 ± 0.021 mPa·s
same,viscosity,"308.15 K, 101 kPa, x1 = 0.9112",0.875 ± 0.022 mPa·s
same,viscosity,"313.15 K, 101 kPa, x1 = 0.1112",0.354 ± 0.02 mPa·s
same,viscosity,"313.15 K, 101 kPa, x1 = 0.225",0.381 ± 0.02 mPa·s
same,viscosity,"313.15 K, 101 kPa, x1 = 0.3223",0.409 ± 0.02 mPa·s
same,viscosity,"313.15 K, 101 kPa, x1 = 0.4312",0.446 ± 0.02 mPa·s
same,viscosity,"313.15 K, 101 kPa, x1 = 0.5017",0.475 ± 0.02 mPa·s
same,viscosity,"313.15 K, 101 kPa, x1 = 0.6114",0.535 ± 0.02 mPa·s
same,viscosity,"313.15 K, 101 kPa, x1 = 0.7213",0.618 ± 0.021 mPa·s
same,viscosity,"313.15 K, 101 kPa, x1 = 0.8211",0.713 ± 0.021 mPa·s
same,viscosity,"313.15 K, 101 kPa, x1 = 0.9112",0.814 ± 0.022 mPa·s
same,viscosity,"318.15 K, 101 kPa, x1 = 0.1112",0.336 ± 0.02 mPa·s
same,viscosity,"318.15 K, 101 kPa, x1 = 0.225",0.362 ± 0.02 mPa·s
same,viscosity,"318.15 K, 101 kPa, x1 = 0.3223",0.387 ± 0.02 mPa·s
same,viscosity,"318.15 K, 101 kPa, x1 = 0.4312",0.421 ± 0.02 mPa·s
same,viscosity,"318.15 K, 101 kPa, x1 = 0.5017",0.449 ± 0.02 mPa·s
same,viscosity,"318.15 K, 101 kPa, x1 = 0.6114",0.504 ± 0.02 mPa·s
same,viscosity,"318.15 K, 101 kPa, x1 = 0.7213",0.579 ± 0.021 mPa·s
same,viscosity,"318.15 K, 101 kPa, x1 = 0.8211",0.666 ± 0.021 mPa·s
same,viscosity,"318.15 K, 101 kPa, x1 = 0.9112",0.764 ± 0.021 mPa·s
C1COCCO1 + CCCCCCCC,viscosity,"308.15 K, 101 kPa, x1 = 0.1324",0.453 ± 0.014 mPa·s
same,viscosity,"308.15 K, 101 kPa, x1 = 0.2242",0.462 ± 0.014 mPa·s
same,viscosity,"308.15 K, 101 kPa, x1 = 0.3234",0.478 ± 0.014 mPa·s
same,viscosity,"308.15 K, 101 kPa, x1 = 0.4124",0.503 ± 0.014 mPa·s
same,viscosity,"308.15 K, 101 kPa, x1 = 0.5114",0.542 ± 0.014 mPa·s
same,viscosity,"308.15 K, 101 kPa, x1 = 0.6124",0.596 ± 0.014 mPa·s
same,viscosity,"308.15 K, 101 kPa, x1 = 0.7332",0.68 ± 0.015 mPa·s
same,viscosity,"308.15 K, 101 kPa, x1 = 0.8231",0.766 ± 0.015 mPa·s
same,viscosity,"308.15 K, 101 kPa, x1 = 0.9222",0.881 ± 0.016 mPa·s
same,viscosity,"313.15 K, 101 kPa, x1 = 0.1324",0.431 ± 0.013 mPa·s
same,viscosity,"313.15 K, 101 kPa, x1 = 0.2242",0.44 ± 0.013 mPa·s
same,viscosity,"313.15 K, 101 kPa, x1 = 0.3234",0.452 ± 0.013 mPa·s
same,viscosity,"313.15 K, 101 kPa, x1 = 0.4124",0.476 ± 0.014 mPa·s
same,viscosity,"313.15 K, 101 kPa, x1 = 0.5114",0.512 ± 0.014 mPa·s
same,viscosity,"313.15 K, 101 kPa, x1 = 0.6124",0.561 ± 0.014 mPa·s
same,viscosity,"313.15 K, 101 kPa, x1 = 0.7332",0.64 ± 0.015 mPa·s
same,viscosity,"313.15 K, 101 kPa, x1 = 0.8231",0.717 ± 0.015 mPa·s
same,viscosity,"313.15 K, 101 kPa, x1 = 0.9222",0.828 ± 0.016 mPa·s
same,viscosity,"318.15 K, 101 kPa, x1 = 0.1324",0.41 ± 0.013 mPa·s
same,viscosity,"318.15 K, 101 kPa, x1 = 0.2242",0.417 ± 0.013 mPa·s
same,viscosity,"318.15 K, 101 kPa, x1 = 0.3234",0.429 ± 0.013 mPa·s
same,viscosity,"318.15 K, 101 kPa, x1 = 0.4124",0.45 ± 0.013 mPa·s
same,viscosity,"318.15 K, 101 kPa, x1 = 0.5114",0.484 ± 0.014 mPa·s
same,viscosity,"318.15 K, 101 kPa, x1 = 0.6124",0.529 ± 0.014 mPa·s
same,viscosity,"318.15 K, 101 kPa, x1 = 0.7332",0.601 ± 0.014 mPa·s
same,viscosity,"318.15 K, 101 kPa, x1 = 0.8231",0.672 ± 0.015 mPa·s
same,viscosity,"318.15 K, 101 kPa, x1 = 0.9222",0.776 ± 0.015 mPa·s
Brc1ccccc1 + CCCCCCCCCCCCCC,viscosity,"298.15 K, 101 kPa, x2 = 0.1001",1.117 ± 0.07 mPa·s
same,viscosity,"298.15 K, 101 kPa, x2 = 0.2007",1.185 ± 0.074 mPa·s
same,viscosity,"298.15 K, 101 kPa, x2 = 0.3005",1.287 ± 0.08 mPa·s
same,viscosity,"298.15 K, 101 kPa, x2 = 0.3996",1.389 ± 0.085 mPa·s
same,viscosity,"298.15 K, 101 kPa, x2 = 0.4985",1.49 ± 0.091 mPa·s
same,viscosity,"298.15 K, 101 kPa, x2 = 0.5998",1.592 ± 0.097 mPa·s
same,viscosity,"298.15 K, 101 kPa, x2 = 0.6987",1.694 ± 0.1 mPa·s
same,viscosity,"298.15 K, 101 kPa, x2 = 0.8012",1.796 ± 0.11 mPa·s
same,viscosity,"298.15 K, 101 kPa, x2 = 0.9011",1.897 ± 0.11 mPa·s
same,viscosity,"303.15 K, 101 kPa, x2 = 0.1001",1.042 ± 0.066 mPa·s
same,viscosity,"303.15 K, 101 kPa, x2 = 0.2007",1.13 ± 0.071 mPa·s
same,viscosity,"303.15 K, 101 kPa, x2 = 0.3005",1.218 ± 0.076 mPa·s
same,viscosity,"303.15 K, 101 kPa, x2 = 0.3996",1.306 ± 0.081 mPa·s
same,viscosity,"303.15 K, 101 kPa, x2 = 0.4985",1.394 ± 0.086 mPa·s
same,viscosity,"303.15 K, 101 kPa, x2 = 0.5998",1.482 ± 0.091 mPa·s
same,viscosity,"303.15 K, 101 kPa, x2 = 0.6987",1.57 ± 0.095 mPa·s
same,viscosity,"303.15 K, 101 kPa, x2 = 0.8012",1.658 ± 0.1 mPa·s
same,viscosity,"303.15 K, 101 kPa, x2 = 0.9011",1.746 ± 0.11 mPa·s
same,viscosity,"308.15 K, 101 kPa, x2 = 0.1001",0.985 ± 0.063 mPa·s
same,viscosity,"308.15 K, 101 kPa, x2 = 0.2007",1.06 ± 0.067 mPa·s
same,viscosity,"308.15 K, 101 kPa, x2 = 0.3005",1.137 ± 0.071 mPa·s
same,viscosity,"308.15 K, 101 kPa, x2 = 0.3996",1.213 ± 0.076 mPa·s
same,viscosity,"308.15 K, 101 kPa, x2 = 0.4985",1.289 ± 0.08 mPa·s
same,viscosity,"308.15 K, 101 kPa, x2 = 0.5998",1.365 ± 0.084 mPa·s
same,viscosity,"308.15 K, 101 kPa, x2 = 0.6987",1.441 ± 0.088 mPa·s
same,viscosity,"308.15 K, 101 kPa, x2 = 0.8012",1.517 ± 0.093 mPa·s
same,viscosity,"308.15 K, 101 kPa, x2 = 0.9011",1.593 ± 0.097 mPa·s
Brc1ccccc1 + CCCCCO,viscosity,"293.15 K, 101.33 kPa, x2 = 0.0631",1.14 ± 0.028 mPa·s
same,viscosity,"293.15 K, 101.33 kPa, x2 = 0.1715",1.212 ± 0.03 mPa·s
same,viscosity,"293.15 K, 101.33 kPa, x2 = 0.2092",1.252 ± 0.03 mPa·s
same,viscosity,"293.15 K, 101.33 kPa, x2 = 0.2807",1.335 ± 0.032 mPa·s
same,viscosity,"293.15 K, 101.33 kPa, x2 = 0.3259",1.398 ± 0.034 mPa·s
same,viscosity,"293.15 K, 101.33 kPa, x2 = 0.3831",1.512 ± 0.036 mPa·s
same,viscosity,"293.15 K, 101.33 kPa, x2 = 0.4182",1.57 ± 0.037 mPa·s
same,viscosity,"293.15 K, 101.33 kPa, x2 = 0.4909",1.716 ± 0.04 mPa·s
same,viscosity,"293.15 K, 101.33 kPa, x2 = 0.5969",2.011 ± 0.047 mPa·s
same,viscosity,"293.15 K, 101.33 kPa, x2 = 0.6886",2.346 ± 0.054 mPa·s
same,viscosity,"293.15 K, 101.33 kPa, x2 = 0.7544",2.636 ± 0.06 mPa·s
same,viscosity,"293.15 K, 101.33 kPa, x2 = 0.8796",3.294 ± 0.074 mPa·s
C1=C[C@H]2[C@@H](C1)[C@H]1C=C[C@@H]2C1 + CCCCCO,viscosity,"293.15 K, 101.2 kPa, x1 = 0.1058",3.719 ± 0.18 mPa·s
same,viscosity,"293.15 K, 101.2 kPa, x1 = 0.1953",3.558 ± 0.16 mPa·s
same,viscosity,"293.15 K, 101.2 kPa, x1 = 0.3",3.422 ± 0.16 mPa·s
same,viscosity,"293.15 K, 101.2 kPa, x1 = 0.4005",3.307 ± 0.15 mPa·s
same,viscosity,"293.15 K, 101.2 kPa, x1 = 0.498",3.279 ± 0.15 mPa·s
same,viscosity,"293.15 K, 101.2 kPa, x1 = 0.5999",3.283 ± 0.16 mPa·s
same,viscosity,"293.15 K, 101.2 kPa, x1 = 0.7018",3.368 ± 0.16 mPa·s
same,viscosity,"293.15 K, 101.2 kPa, x1 = 0.8009",3.522 ± 0.18 mPa·s
same,viscosity,"293.15 K, 101.2 kPa, x1 = 0.8999",3.876 ± 0.22 mPa·s
same,viscosity,"303.15 K, 101.2 kPa, x1 = 0.1058",2.86 ± 0.13 mPa·s
same,viscosity,"303.15 K, 101.2 kPa, x1 = 0.1953",2.734 ± 0.13 mPa·s
same,viscosity,"303.15 K, 101.2 kPa, x1 = 0.3",2.63 ± 0.12 mPa·s
same,viscosity,"303.15 K, 101.2 kPa, x1 = 0.4005",2.569 ± 0.12 mPa·s
same,viscosity,"303.15 K, 101.2 kPa, x1 = 0.498",2.547 ± 0.12 mPa·s
same,viscosity,"303.15 K, 101.2 kPa, x1 = 0.5999",2.575 ± 0.12 mPa·s
same,viscosity,"303.15 K, 101.2 kPa, x1 = 0.7018",2.648 ± 0.13 mPa·s
same,viscosity,"303.15 K, 101.2 kPa, x1 = 0.8009",2.784 ± 0.14 mPa·s
same,viscosity,"303.15 K, 101.2 kPa, x1 = 0.8999",3.037 ± 0.17 mPa·s
same,viscosity,"313.15 K, 101.2 kPa, x1 = 0.1058",2.201 ± 0.1 mPa·s
same,viscosity,"313.15 K, 101.2 kPa, x1 = 0.1953",2.126 ± 0.097 mPa·s
same,viscosity,"313.15 K, 101.2 kPa, x1 = 0.3",2.062 ± 0.095 mPa·s
same,viscosity,"313.15 K, 101.2 kPa, x1 = 0.4005",2.032 ± 0.094 mPa·s
same,viscosity,"313.15 K, 101.2 kPa, x1 = 0.498",2.035 ± 0.095 mPa·s
same,viscosity,"313.15 K, 101.2 kPa, x1 = 0.5999",2.075 ± 0.099 mPa·s
same,viscosity,"313.15 K, 101.2 kPa, x1 = 0.7018",2.14 ± 0.11 mPa·s
same,viscosity,"313.15 K, 101.2 kPa, x1 = 0.8009",2.259 ± 0.12 mPa·s
same,viscosity,"313.15 K, 101.2 kPa, x1 = 0.8999",2.466 ± 0.14 mPa·s
